Laboratory results: patent US9480679B2, “Methods for treating malaria, tuberculosis and MAC diseases” (priority 2009, dated 2016)
Converted amounts (≈) assume the structure as drawn. Like-named read-outs stand apart in the source and are kept apart here.

Columns and labels:
M. avium complex = experiment: Broth dilution MIC versus M. avium complex isolates; assay type: cell-based, Mycobacterium avium; details: Mycobacterium avium, read-out: MIC
M. avium LPR ATCC 49601 = experiment: Murine model of M. avium infection, CFU in spleens and lungs; assay type: in vivo; details: mice; for reduction in growth of MAC LPR in the spleens and lungs compared to the late controls: P<0.05
[1] = tested on: replicating M. tuberculosis; experiment: Microplate Alamar Blue Assay (MABA), replicating culture; assay type: cell-based; details: two experiments

CC[C@H]1OC(=O)[C@@](C)(F)C(=O)[C@H](C)[C@@H](O[C@@H]2O[C@H](C)C[C@H](N(C)C)[C@H]2O)[C@](C)(OC)C[C@@H](C)C(=O)[C@H](C)[C@H]2N(CCCCn3cc(-c4cccc(N)c4)nn3)C(=O)O[C@]12C [CEM-101, solithromycin] gave an MIC (M. avium complex; isolate MAC 101, clarithromycin susceptible) of 0.25 µg/mL (≈ 0.296 µM), an MIC (M. avium complex; isolate MAC 103, clarithromycin resistant) of 8 µg/mL (≈ 9.47 µM) and an MIC (M. avium complex; isolate MAC 108, clarithromycin resistant) of 8 µg/mL (≈ 9.47 µM). For the same compound, the MIC (M. avium complex; isolate MAC 110, clarithromycin resistant) was 8 µg/mL (≈ 9.47 µM), the MIC (M. avium complex; isolate MAC 216, clarithromycin resistant) was 8 µg/mL (≈ 9.47 µM) and the MIC (M. avium complex; isolate MAC 224, clarithromycin resistant) was 8 µg/mL (≈ 9.47 µM). The MIC (M. avium complex; isolate MAC 309, clarithromycin resistant) was 8 µg/mL (≈ 9.47 µM), the MIC (M. avium complex; isolate MAC 320, clarithromycin resistant) was 8 µg/mL (≈ 9.47 µM) and the MIC (M. avium complex; isolate MAC 621, clarithromycin resistant) was 16 µg/mL (≈ 18.9 µM). It also gave an MIC (M. avium complex; isolate MAC 623, clarithromycin resistant) of 16 µg/mL (≈ 18.9 µM), an MIC (M. avium complex; isolate MAC 625, clarithromycin resistant) of 8 µg/mL (≈ 9.47 µM) and an MIC (M. avium complex; isolate MAC 643, clarithromycin resistant) of 8 µg/mL (≈ 9.47 µM). It also gave an MIC (M. avium complex; isolate MAC 1408, clarithromycin susceptible) of 0.25 µg/mL (≈ 0.296 µM), an MIC (M. avium complex; isolate MAC 3404.4, clarithromycin susceptible) of 0.125 µg/mL (≈ 0.148 µM) and an MIC (M. avium complex; isolate MAC 9141, clarithromycin susceptible) of 1 µg/mL (≈ 1.18 µM). The MIC (M. avium complex; isolate MAC FAR, clarithromycin susceptible) was 0.125 µg/mL (≈ 0.148 µM), the MIC (M. avium complex; isolate MAC GRL, clarithromycin susceptible) was 8 µg/mL (≈ 9.47 µM) and the MIC (M. avium complex; isolate MAC KAL, clarithromycin susceptible) was 16 µg/mL (≈ 18.9 µM). For the same compound, the MIC (M. avium complex; isolate MAC KZL, clarithromycin susceptible) was 8 µg/mL (≈ 9.47 µM), the MIC (M. avium complex; isolate MAC LPR (control strain)) was 8 µg/mL (≈ 9.47 µM) and the MIC (M. avium complex; isolate MAC Pry, clarithromycin resistant) was 8 µg/mL (≈ 9.47 µM). It also gave an MIC (M. avium complex; isolate MAC SMT, clarithromycin susceptible) of 0.125 µg/mL (≈ 0.148 µM), an MIC (M. avium complex; isolate MAC TEL, clarithromycin susceptible) of 8 µg/mL (≈ 9.47 µM) and an MIC (M. avium complex; isolate MAC TRY, clarithromycin susceptible) of 8 µg/mL (≈ 9.47 µM). For the same compound, the “reduction in growth of MAC LPR in the spleens and lungs compared to the late controls, significant or not” value (M. avium LPR ATCC 49601; 25 mg/kg orally 5 days/week for 4 weeks, P>0.05) was “not”, the “reduction in growth of MAC LPR in the spleens and lungs compared to the late controls” value (M. avium LPR ATCC 49601; 50 mg/kg orally 5 days/week for 4 weeks) was “significant” and the “reduction in growth of MAC LPR in the spleens and lungs compared to the late controls” value (M. avium LPR ATCC 49601; 100 mg/kg orally 5 days/week for 4 weeks) was “significant”. For the same compound, the “reduction in growth of MAC LPR in the spleens and lungs compared to the late controls” value (M. avium LPR ATCC 49601; 200 mg/kg orally 5 days/week for 4 weeks) was “significant”, the “reduction in CFU of MAC LPR in spleens and lungs compared to the CLA 200 mg/kg group” value (M. avium LPR ATCC 49601; 200 mg/kg, difference not statistically significant (P>0.05)) was “greater” and the MIC ([1]; Mycobacterium tuberculosis) was 9.23 µM (≈ 7.8 µg/mL). For the same compound, the MIC [1] was 9.17 µM (≈ 7.75 µg/mL).
